{"source": "patent US20220304950A1", "about": "“[…] THE TREATMENT OF PATIENTS WITH MAJOR DEPRESSIVE DISORDER, INCLUDING SUICIDALITY” (JANSSEN PHARMACEUTICALS, INC., priority 2019, published 2022)", "key": {"[1]": {"tested_on": "adult patients with MDD assessed to be at imminent risk for suicide", "assay": "Treatment disposition, Study 1 (Example 4)", "type": "in vivo, human", "conditions": "Esk 84 mg + SOC, double-blind phase, all randomized", "protocol": "A total of 270 subjects were screened across 51 sites in 10 countries throughout the study period. Of those, 226 subjects were randomized to 1 of 2 treatment groups in a 1:1 ratio (114 in esketamine 84 mg+SOC and 112 in placebo+SOC). The randomization was stratified by study center and by the physician's assessment of the participant's need of standard of care antidepressant treatment prior to randomization on Day 1 (i.e., antidepressant monotherapy or antidepressant plus augmentation therapy)."}, "[2]": {"tested_on": "adult patients with MDD assessed to be at imminent risk for suicide", "assay": "Treatment disposition, Study 2 (Example 5)", "type": "in vivo, human", "conditions": "Esk 84 mg + SOC, double-blind phase, all randomized", "protocol": "A total of 273 subjects were screened across 50 sites in 12 countries throughout the study period. Of those, 230 subjects were randomized to 1 of 2 treatment groups in a 1:1 ratio (115 in esketamine 84 mg+SOC and 115 in placebo+SOC). Randomization was stratified by study center and by the physician's assessment of the subject's need of standard of care antidepressant treatment (i.e., antidepressant monotherapy or an antidepressant plus augmentation therapy); the standard of care was determined prior to randomization on Day 1. […] The mean age was 40.8 years, ranging from 18 to 64 years."}}}
{"smiles": "CN[C@]1(c2ccccc2Cl)CCCCC1=O", "note": "[esketamine, (S)-2-(2-chlorophenyl)-2-(methylamino)cyclohexanone]", "values": [{"measurement": "Discontinuation due to adverse event, subjects %", "setting": "[1]", "value": 4.4, "unit": "%"}, {"measurement": "Discontinuation due to adverse event, subjects n", "setting": "[1]", "value": 5}, {"measurement": "Discontinuation due to adverse event, subjects %", "setting": "[2]", "value": 7.8, "unit": "%"}, {"measurement": "Discontinuation due to adverse event, subjects n", "setting": "[2]", "value": 9}]}
